We go through four compounds from article PMC2365111, “Cytotoxicity of Poly(Phenolic)Sulfonates and Their Sodium Salts in L1210 Lymphoid Leukemia Cells” (Metal-Based Drugs, 1998).

Assay [1] relates to colorectal adenocarcinoma SW480. The experiment in a line: Cytotoxicity, SW480 growth. It is filed as cell-based, human. The text has this:
CYTOTOXlCITY OF POLY(PHENOLIC)SULFONATES AND THEIR SODIUM SALTS IN L1210 LYMPHOID LEUKEMIA CELLS Fei Wang, Amy E. Warren, Cheryl R. Barnes and Iris H. Hall* Division of Medicinal Chemistry and Natural Products University of North Carolina Chapel Hill, N.C. […] Because ofthese properties it was surmised that these poly(phenolic)sulfonated compounds may have antineoplastic activity. METHODS Source of Compounds Test compounds were supplied by GeneLabs, Inc. [Redwood City, CA [Table 1]. Radioisotopes were obtained from New England Nuclear [Dupont, Boston, MA]. Substrates and co-factors were purchased om Sigma Chemical Co., [St Louis, MO]. Pentosan sulfate and other antineoplastic standards were obtained from Sigma Chemical Co. Tumor lines were obtained from American Type Culture Collection [Rockville, MD]. 147 Vol. 5, No. 3, 1998 Cytotoxicity ofSodium Poly(Phenolic)Sulfonates in L1210 Lymphoid Leukemia Cells Table 1 Structures of Poly(phenolic)sulfonate Compounds O2R" n Compound R' R" n MW # G1-2041 H OH 8 1489.46 G1-2029 H OH 6 1117.09 G1-2030 H OH 4 744.73 GI-2021 CH3 ONa 8 1777.5 G1-2057 CH3 ONa 4 888.75 GI-2158 CH3 ONa 6 1333.13 GI-2063 OCH3 ONa 8 2001.65 G1-2042 OAc ONa 8 2017.73 Cytotoxicity Poly(phenolic)sulfonates were tested for cytotoxic activity by homogenizing drug in 0.05% Tween 80/H20 to give a mg/ml stock concentration. These solutions were sterilized by passing them through an acrodisc ([…]). The following cell lines were maintained by literature techniques: murine L1210 lymphoid leukemia, P-388 lymphocytic leukemia, rat UMR 106 osteosarcoma, human Tmolt3 acute lymphoblastic T cell leukemia, HUT-8 lymphoma, HeLa-S suspended cervical carcinoma, HeLa solid cervical carcinoma, KB epidermoid nasopharynx, A431 epidermoid carcinoma, colorectal adenocarcinoma SW480, HCT-8 ileocecal adenocarcinoma, lung bronchogenic MB-9812, A549 lung carcinoma, and glioma HS683. […] Cell numbers were determined by the trypan blue exclusion technique. Solid tumor cytotoxicity was determined by Leibovitz et al. 's method utilizing crystal violeeOH and read at 562 nm (Molecular Devices). Values for cytotoxicity were expressed as EDs0 g/ml, i.e. the concentration ofthe compound inhibiting 50% ofcell growth. […] Incorporation of 4C- formate (53.0 mCi/mmol) into pyrimidines was determined by the method of Christopherson et al.[13]. […] DNA polymerase Ot activity was determined in cytoplasmic extracts isolated by Eichler et aL's method. […] Messenger-, ribosomal- and transfer-RNA polymerase enzymes were isolated with different concentrations of ammonium sulfate; individual RNA polymerase activities were determined using 3H -UTP 16,17]. Ribonucleoside reductase activity was measured using 4C -CDP with dithioerythritol. […]

Assay [2] concerns KB epidermoid nasopharynx. Briefly: Cytotoxicity, KB growth. The format is cell-based, human. The conditions noted are these: concentration inhibiting 50% of cell growth. The text has this: (§1) CYTOTOXlCITY OF POLY(PHENOLIC)SULFONATES AND THEIR SODIUM SALTS IN L1210 LYMPHOID LEUKEMIA CELLS Fei Wang, Amy E. Warren, Cheryl R. Barnes and Iris H. Hall* Division of Medicinal Chemistry and Natural Products University of North Carolina Chapel Hill, N.C. […] Because ofthese properties it was surmised that these poly(phenolic)sulfonated compounds may have antineoplastic activity. METHODS Source of Compounds Test compounds were supplied by GeneLabs, Inc. [Redwood City, CA [Table 1]. Radioisotopes were obtained from New England Nuclear [Dupont, Boston, MA]. Substrates and co-factors were purchased om Sigma Chemical Co., [St Louis, MO]. Pentosan sulfate and other antineoplastic standards were obtained from Sigma Chemical Co. Tumor lines were obtained from American Type Culture Collection [Rockville, MD]. […] Cell numbers were determined by the trypan blue exclusion technique. Solid tumor cytotoxicity was determined by Leibovitz et al. 's method utilizing crystal violeeOH and read at 562 nm (Molecular Devices). Values for cytotoxicity were expressed as EDs0 g/ml, i.e. the concentration ofthe compound inhibiting 50% ofcell growth. […] Incorporation of 4C- formate (53.0 mCi/mmol) into pyrimidines was determined by the method of Christopherson et al.[13]. […] DNA polymerase Ot activity was determined in cytoplasmic extracts isolated by Eichler et aL's method. […] Messenger-, ribosomal- and transfer-RNA polymerase enzymes were isolated with different concentrations of ammonium sulfate; individual RNA polymerase activities were determined using 3H -UTP 16,17]. Ribonucleoside reductase activity was measured using 4C -CDP with dithioerythritol. […]

Assay [3] has as its system murine L1210 lymphoid leukemia. It is filed as cell-based, mouse. The conditions noted are these: concentration inhibiting 50% of cell growth. The text has this:
CYTOTOXlCITY OF POLY(PHENOLIC)SULFONATES AND THEIR SODIUM SALTS IN L1210 LYMPHOID LEUKEMIA CELLS Fei Wang, Amy E. Warren, Cheryl R. Barnes and Iris H. Hall* Division of Medicinal Chemistry and Natural Products University of North Carolina Chapel Hill, N.C. […] Because ofthese properties it was surmised that these poly(phenolic)sulfonated compounds may have antineoplastic activity. METHODS Source of Compounds Test compounds were supplied by GeneLabs, Inc. [Redwood City, CA [Table 1]. Radioisotopes were obtained from New England Nuclear [Dupont, Boston, MA]. Substrates and co-factors were purchased om Sigma Chemical Co., [St Louis, MO]. Pentosan sulfate and other antineoplastic standards were obtained from Sigma Chemical Co. Tumor lines were obtained from American Type Culture Collection [Rockville, MD]. 147 Vol. 5, No. 3, 1998 Cytotoxicity ofSodium Poly(Phenolic)Sulfonates in L1210 Lymphoid Leukemia Cells Table 1 Structures of Poly(phenolic)sulfonate Compounds O2R" n Compound R' R" n MW # G1-2041 H OH 8 1489.46 G1-2029 H OH 6 1117.09 G1-2030 H OH 4 744.73 GI-2021 CH3 ONa 8 1777.5 G1-2057 CH3 ONa 4 888.75 GI-2158 CH3 ONa 6 1333.13 GI-2063 OCH3 ONa 8 2001.65 G1-2042 OAc ONa 8 2017.73 Cytotoxicity Poly(phenolic)sulfonates were tested for cytotoxic activity by homogenizing drug in 0.05% Tween 80/H20 to give a mg/ml stock concentration. These solutions were sterilized by passing them through an acrodisc ([…]). The following cell lines were maintained by literature techniques: murine L1210 lymphoid leukemia, P-388 lymphocytic leukemia, rat UMR 106 osteosarcoma, human Tmolt3 acute lymphoblastic T cell leukemia, HUT-8 lymphoma, HeLa-S suspended cervical carcinoma, HeLa solid cervical carcinoma, KB epidermoid nasopharynx, A431 epidermoid carcinoma, colorectal adenocarcinoma SW480, HCT-8 ileocecal adenocarcinoma, lung bronchogenic MB-9812, A549 lung carcinoma, and glioma HS683. Geran et al.'s protocol was used to assess the cytotoxicity of the compounds and standards in each cell line. Cell numbers were determined by the trypan blue exclusion technique. Solid tumor cytotoxicity was determined by Leibovitz et al. 's method utilizing crystal violeeOH and read at 562 nm (Molecular Devices). Values for cytotoxicity were expressed as EDs0 g/ml, i.e. the concentration ofthe compound inhibiting 50% ofcell growth. A value of less than 4 µg/ml was required for significant activity ofgrowth inhibition. Incorporation Studies Incorporation of labeled precursors into 3H-DNA, 3H -RNA and 3H -protein for 10 L1210 cells was obtained. The concentration response for inhibition of DNA, RNA and protein synthesis of the compounds at 25, 50 and 100 l.tM was determined for 60 min incubations. Incorporation of 14C -glycine (53.0 mCi/mmol) into purines was obtained by the method of Cadman et al.[12]. Incorporation of 4C- formate (53.0 mCi/mmol) into pyrimidines was determined by the method of Christopherson et al.[13]. Enzyme Assays Inhibition of various enzyme activities was performed by first preparing the appropriate L1210 cell homogenates or subcellular fractions, then adding the drug to be tested during the enzyme assay. For the concentration response studies, inhibition of enzyme activity was determined at 25, 50 and 100 l.tM of compounds G1-2021, G1-2029, GI-2041 and G1-2063 after 60 min incubations. DNA polymerase Ot activity was determined in cytoplasmic extracts isolated by Eichler et aL's method. The DNA polymerase assay was described by Sedwick et al.[15] using 3H-TTP. Messenger-, ribosomal- and transfer-RNA polymerase enzymes were isolated with different concentrations of ammonium sulfate; individual RNA polymerase activities were determined using 3H -UTP 16,17]. Ribonucleoside reductase activity was measured using 4C -CDP with dithioerythritol. The deoxyribonucleotides 4C -dCDP were separated from the ribonucleotides by TLC on PEI plates. […]

The subject of assay [4] is lung bronchogenic MB-9812. Briefly: Cytotoxicity, MB-9812 growth. It is filed as cell-based, human.
Text: as §1, with “MO].” for “MO]. Pentosan sulfate and other antineoplastic standards were obtained from Sigma Chemical Co. Tumor lines were obtained from American Type Culture Collection [Rockville, MD].”, “16,17].” for “16,17]. Ribonucleoside reductase activity was measured using 4C -CDP with dithioerythritol.”

Assay [5] relates to human Tmolt3 acute lymphoblastic T cell leukemia. The experiment in a line: Cytotoxicity, Tmolt3 growth. It is filed as cell-based. To be noted: concentration inhibiting 50% of cell growth.
Text: as §1, with “MO].” for “MO]. Pentosan sulfate and other antineoplastic standards were obtained from Sigma Chemical Co. Tumor lines were obtained from American Type Culture Collection [Rockville, MD].”, “16,17].” for “16,17]. Ribonucleoside reductase activity was measured using 4C -CDP with dithioerythritol.”

Assay [6] relates to HeLa-S suspended cervical carcinoma. Briefly: Cytotoxicity, HeLa-S3 growth. It is filed as cell-based, human. To be noted: concentration inhibiting 50% of cell growth.
Text: as §1, with “MO].” for “MO]. Pentosan sulfate and other antineoplastic standards were obtained from Sigma Chemical Co. Tumor lines were obtained from American Type Culture Collection [Rockville, MD].”, “16,17].” for “16,17]. Ribonucleoside reductase activity was measured using 4C -CDP with dithioerythritol.”

The next assay deals with DNA polymerase. Also noted: method as in ref 40. To be noted: non-competitively; enzyme name lost ref 40; read-out: inhibition of second DNA polymerase activity; cited from earlier work.
The test system of assay [7] is DC-3F/9-OH-E (resistant 9-hydroellipticine subline). Set-up: method as in ref 41. To be noted: cited from earlier work.
The next assay concerns the target DNA polymerase α. Also noted: method as in ref 40. To be noted: non-competitively ref 40; read-out: inhibition of DNA polymerase α activity; cited from earlier work.
Another assay concerns SV40 replication. Also noted: method as in ref 38. The conditions noted are these: in HeLa cells ref 38; cited from earlier work.
A further assay concerns DC-3F. Set-up: method as in ref 41. To be noted: cited from earlier work.
Another assay concerns HeLa cells. Also noted: method as in ref 38. The conditions noted are these: HeLa cells ref 38; cited from earlier work.
Assay [8] concerns Rauscher leukemic virus, Moloney murine sarcoma virus and avian myeloblastosis reverse transcriptase. To be noted: cited from earlier work.

For `O=S(=O)(O)c1cc2c(O)c(c1)Cc1cc(S(=O)(=O)O)cc(c1O)Cc1cc(S(=O)(=O)O)cc(c1O)Cc1cc(S(=O)(=O)O)cc(c1O)C2` [GI-2030], the “activity, in words” value in [1] is “active”. The ED50 entry in assay [1] (concentration inhibiting 50% of cell growth) was “less than 2 μg/ml”.

The compound `COc1c2cc(S(=O)(=O)[O-])cc1Cc1cc(S(=O)(=O)[O-])cc(c1OC)Cc1cc(S(=O)(=O)[O-])cc(c1OC)Cc1cc(S(=O)(=O)[O-])cc(c1OC)Cc1cc(S(=O)(=O)[O-])cc(c1OC)Cc1cc(S(=O)(=O)[O-])cc(c1OC)C2.[Na+].[Na+].[Na+].[Na+].[Na+].[Na+]` [GI-2158] gave an ED50 in assay [2] of 3.24 µg/mL.

Take pentosan sulfate [reference compound]: the ED50 in assay [3], in assay [5] and in [6] was below 3 µg/mL throughout. Besides, the “growth suppression, in words” value in [4] is “suppressed moderately”.

In the case of `Cc1ccc(C(=O)Nc2ccc(S(=O)(=O)O)c3cc(S(=O)(=O)O)cc(S(=O)(=O)O)c23)cc1NC(=O)c1cccc(NC(=O)Nc2cccc(C(=O)Nc3cc(C(=O)Nc4ccc(S(=O)(=O)O)c5cc(S(=O)(=O)O)cc(S(=O)(=O)O)c45)ccc3C)c2)c1` [suramin], the IC50 on DNA polymerase is 36 µM; at DNA polymerase α, 8 µM. In addition, the ED50 in assay [7] was 203 µM; with DC-3F, 31 µM. Moreover, the “concentration required to inhibit SV40 replication” value with SV40 replication is 40 µM. Also, the “concentration required to cause death” value in the assay on HeLa cells was 250 µg/mL. Also, the “concentration inhibiting reverse transcriptase activities” value in assay [8] was 0.1 µg/mL.
